This experiment relates to mel1300 cells. Kind of experiment: IFN-γ release, SSX-2 TCR PBL co-cultured with mel1300 cells with DAC. The conditions noted are these: 0.1 μM or 1.0 μWI DAC; PBLs from three donors; FIG. 12. The class given is cell-based. On the procedure:
SSX-2 TCR-transduced PBLs from three donors were co-cultured with mel1300 cells without DAC or with 0.1 μM or 1.0 μWI DAC.

Turning to `Nc1ncn([C@H]2C[C@H](O)[C@@H](CO)O2)c(=O)n1` [DAC, 5-aza-2′-deoxycytidine], the “effect on recognition of mel1300 cells (IFN-γ)” value is recorded as “enhances the recognition of mel1300 cells by SSX2-TCR engineered PBL”.

These data come from patent US10864252B2, “Anti-SSX-2 T cell receptors and related materials and methods of use” (The United States of America, as represented by the …, priority 2010, dated 2020).
